Data set [1] deals with RAW264.7 murine macrophage-like cells. The data set is described as follows: In vitro gene expression of M1-like and M2-like macrophage markers (real-time PCR). Format: cell-based. The note with it: RAW264.7 in 20% CT26-CM/DMEM, 3 days. The method, then: The detailed method and DNA primer sequences were described previously. RAW264.7 murine macrophage-like cells and CT26.WT murine colorectal cancer cells (CRL-2638) were purchased from RIKEN BRC (Tsukuba, Japan) and American Type Cell Collection (Manassas, VA, USA), respectively. CT26 cells (4 × 10^6) were grown in T75 flask with 20 mL of RPMI medium containing 10% FBS for 3 days. The culture medium (CT26-CM) was collected and centrifuged at 400 g for 5 min. RAW264.7 cells (2.4 × 10^5) were incubated in 24-well plate in the presence or absence of KS-133 (KS-133 concentration = 1, 3, or 10 μM, DMSO concentration = 0.1%) with 20% CT26-CM/DMEM for 3 days. During the incubation, medium containing KS-133 was replaced every day. mRNA extraction was performed using ISOGEN (Nippon Gene, Tokyo, Japan) on day 3 after CT26-CM incubation, and cDNA was prepared. The gene expression of M1 markers (TNF-α, iNOS, CXCL10), M2 markers (Mrc-1, IL-1rn, CCL22), and β-actin was analyzed by real-time polymerase chain reaction (PCR) using a 7300 Fast Real-Time PCR System (Applied Biosystems, Thermo Fisher Scientific, MA, USA,) and Light Cycler Fast Start DNA Master kit (Applied Biosystems). The relative mRNA expression was determined using the 2^−ΔΔCt method. ΔΔCt was calculated using control group data.
It has been reported that when RAW264.7 cells are incubated in the presence of the culture supernatant of CT26 cells, M1-type macrophage marker mRNA expression is decreased, and that of M2-type macrophages is increased. Using this assay system, we evaluated whether KS-133 affect the mRNA expression of TNFα, iNOS, and CXCL10 as M1-type macrophage markers and Mrc-1, IL-1Rn, and CCL-22 as M2-type macrophage markers. […] Therefore, VIPR2 inhibition by KS-133 changes the macrophage polarity toward M1.
Fig 1 Variation of marker gene expression in M1- and M2-type macrophages in the presence of KS-133. Results are presented as the mean ± SEM (n = 3 independent experiments using separately treated cultures, *p < 0.05 vs. control by two-way ANOVA).

The nature of data set [2]: Water solubility of the peptides, with or without surfactant (appearance). In kind it is physicochemical. On the procedure:
KS-133 and KS-133(P3S) (a substitution of proline at position three of KS-133 with serine) were synthesized at SCRUM Inc. (Tokyo, Japan) using Fmoc-based solid-phase peptide synthesis as previously reported. After reverse phase–high-performance liquid chromatography (RP–HPLC) purification, structural assignment was performed by matrix-assisted laser desorption ionization–time-of-flight mass spectrometry (MS). All analytical data of peptides in this report are presented in S1 Table. Cremophor EL® (CrEL) (09727–14) was purchased from Nacalai Tesque, Inc. (Kyoto, Japan). The nanoformulation of peptide using CrEL was done by basically according to the method as previously reported. First, KS-133 or KS-133(P3S) (20 mg) was dissolved in DMSO (100 μL), giving a concentration of 200 mg/mL. Next, CrEL (100 μL) was mixed with purified water (350 μL). The peptide solution was added dropwise to the stirring CrEL solution and mixed. Then, the peptide/CrEL solution made into a suspension by repeated vortex agitation and sonication at approximately 50°C. Purified water (450 μL) was added to the peptide/CrEL solution, and the same process was repeated. […]
Fig 3 Nanoformulation of peptides using CrEL and their characterization. […] The determined particle size of KS-133 NPs was approximately 15.34 nm, and that of KS-133(P3S) NPs was approximately 15.96 nm. […]

Where [3] appears, read: KS-133 10 μM, 0.1% DMSO, 2^−ΔΔCt, n = 3, p < 0.05 vs control.

Where a SMILES comes first, the peptide text is derived from it. Bridges are numbered along the chain shown (N, C = ends). Some results are limits rather than exact numbers.

For `CC[C@H](C)[C@H](NC(=O)[C@H](CC(C)C)NC(=O)[C@@H]1CC(=O)NCCCC[C@@H]2NC(=O)[C@@H]3CCCN3C(=O)[C@H](CC(C)C)NC(=O)[C@H](Cc3ccc(O)cc3)NC(=O)[C@@H]3CCCN3C(=O)[C@@H]3CCCN3C(=O)[C@@H](NC(C)=O)CSSC[C@H](NC(=O)[C@H](CC(C)C)NC(=O)[C@H](Cc3ccc(O)cc3)NC2=O)C(=O)N1)C(N)=O` [KS-133] (Ac-CPPYLPKYLCDLI-NH2; disulfide 1-10; lactam 7-11), in data set [1] (setting [3]), the “mRNA expression level of CXCL10 (M1-type macrophage marker)” value is “significantly enhanced” and the “mRNA expression level of iNOS (M1-type macrophage marker)” value is listed as “significantly enhanced”. Further, in data set [1], the “CCL22 expression (M2-type macrophage marker)” value was “no effect” and the “IL-1Rn expression (M2-type macrophage marker)” value is on record as “no effect”. Besides, in data set [1] (n = 3, p < 0.05 vs control), the “mRNA expression of Mrc-1 (M2-type macrophage marker)” value was “significantly decreased”. Moreover, the “concentration that could be dissolved in DMSO(10%)/CrEL(10%)” value in data set [2] (Fig 3C, transparent solution immediately after preparation) is reported as at least 20 mg/mL. In addition, the “solubility in aqueous solution / water solubility (in words)” value in data set [2] (without surfactant) was “poor solubility”.

These data come from paper PMC10321640, “The VIPR2-selective antagonist KS-133 changes macrophage polarization and exerts potent anti-tumor effects as a single agent and in combination with an anti-PD-1 antibody” (PLOS ONE, 2023).
